The results in this text go back to PMC9964281, “Identification of CBPA as a New Inhibitor of PD-1/PD-L1 Interaction” (International Journal of Molecular Sciences, 2023).

The assay deals with T1, hPD-L1 (Homo sapiens, UniProt Q9NZQ7).
T1 construct: gene CD274; ectodomain (residues 18–239)
The experiment in a line: SPR (Biacore X100, CM5 chip with immobilized hPD-L1, steady-state fit). It is filed as binding.

T1 sequence (Q9NZQ7 18-239): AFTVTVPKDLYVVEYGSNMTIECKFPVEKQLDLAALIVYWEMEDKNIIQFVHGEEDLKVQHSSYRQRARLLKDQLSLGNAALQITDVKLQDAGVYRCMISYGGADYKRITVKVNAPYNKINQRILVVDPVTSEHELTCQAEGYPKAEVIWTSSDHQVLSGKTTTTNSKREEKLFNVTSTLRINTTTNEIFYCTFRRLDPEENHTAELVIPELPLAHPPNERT

The compound `Clc1ccc(COc2ccc(CNCc3ccncc3)cc2)cc1` [CBPA, N-{4-[(4-chlorobenzyl)oxy]benzyl}-N-(4-pyridinylmethyl)amine] came in with a Kd of 48.1 µM.
